Assay results taken from PMC4308083, “Cytokine-Induced Loss of Glucocorticoid Function: Effect of Kinase Inhibitors, Long-Acting β2-Adrenoceptor Agonist and Glucocorticoid Receptor Ligands” (PLoS ONE, 2015).
Read-outs that look alike come from different tables or passages of the source.

Key:
[1] = molecular target: T1, glucocorticoid receptor (NR3C1) (Homo sapiens, UniProt P04150); assay: 2×GRE luciferase reporter activation by NR3C1 ligands in BEAS-2B cells; assay type: cell-based; settings: for EC50: pEC50 (M)
T1 construct: BEAS-2B cells stably transfected with a glucocorticoid response element (2×GRE) driven luciferase reporter plasmid; endogenous in cells; host or cells: BEAS-2B human bronchial epithelial cells stably carrying a 2×GRE luciferase reporter
T1 sequence (P04150 1-777): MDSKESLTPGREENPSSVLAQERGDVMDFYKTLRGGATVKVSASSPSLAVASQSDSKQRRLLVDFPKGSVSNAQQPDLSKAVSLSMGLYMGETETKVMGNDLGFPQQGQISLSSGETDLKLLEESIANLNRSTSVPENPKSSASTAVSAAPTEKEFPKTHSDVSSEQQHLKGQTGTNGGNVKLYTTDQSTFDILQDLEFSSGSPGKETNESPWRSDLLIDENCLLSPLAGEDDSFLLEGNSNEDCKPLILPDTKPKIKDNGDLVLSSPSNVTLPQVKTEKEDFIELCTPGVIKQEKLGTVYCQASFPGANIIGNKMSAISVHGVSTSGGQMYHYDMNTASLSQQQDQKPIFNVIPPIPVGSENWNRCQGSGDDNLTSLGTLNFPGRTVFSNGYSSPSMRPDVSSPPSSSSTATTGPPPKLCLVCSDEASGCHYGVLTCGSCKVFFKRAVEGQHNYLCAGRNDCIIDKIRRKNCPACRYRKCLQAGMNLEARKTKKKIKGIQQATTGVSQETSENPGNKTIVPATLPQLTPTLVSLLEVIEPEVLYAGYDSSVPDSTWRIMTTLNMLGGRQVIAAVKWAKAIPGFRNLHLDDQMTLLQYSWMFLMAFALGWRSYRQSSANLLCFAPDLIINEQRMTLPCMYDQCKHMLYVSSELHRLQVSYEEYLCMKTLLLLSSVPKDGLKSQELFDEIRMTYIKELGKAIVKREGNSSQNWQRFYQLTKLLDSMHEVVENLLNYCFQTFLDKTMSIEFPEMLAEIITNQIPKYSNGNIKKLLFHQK
Description: (§1) BEAS-2B cells stably transfected with a glucocorticoid response element (2×GRE) driven luciferase reporter plasmid, pGL3.neo.TATA.neo [23], were cultured in medium containing 0.25 mg/ml G-418 (Promega, Madison, WI). Cells were grown to confluence in 24 or 48 well plates and incubated overnight in serum-free media prior to experiments. Cells were harvested in reporter lysis buffer and luciferase assays performed according to the manufacturer’s instructions (Firefly Luciferase Assay Kit; Biotium; Hayward, CA) using a 20/20n luminometer (Promega).
Cells were harvested 6 h after NR3C1 ligand addition for luciferase assay.
(§2) Cells were harvested after 6 h for luciferase assays. Data (n = 7), expressed as fold activation, are plotted as means ± S.E. Lines of best fit were added in panel B. Statistical analyses were performed by ANOVA with a Dunnett’s test comparing each NR3C1 ligand alone versus in the presence of TNF and/or Form. *, P<0.05; **, P<0.01; ***, P<0.001.

[2] = tested on: CDKN1C, DUSP1, RGS2 and TSC22D3 mRNA in BEAS-2B cells; assay: RT-PCR of glucocorticoid-inducible gene expression in BEAS-2B cells
Description: Cells were harvested 6 h after Dex addition.
BEAS-2B cells were pre-treated for 30 min with either 10 or 3 μM of the JNK MAPK inhibitor JNK inhibitor VIII (JNK) or 10 μM of the IKK2 inhibitor PS-1145 (PS), before addition of 10 ng/ml tumor necrosis factor-α (TNF).
Cells were harvested 6 h after NR3C1 ligand addition.

2×GRE reporter = assay: Modulation of dexamethasone/NR3C1 ligand-induced 2×GRE reporter activation (kinase inhibitors, TNF, formoterol) in BEAS-2B cells; assay type: cell-based, human; settings: for Effect on dexamethasone-induced 2×GRE reporter activation (concentration-response): 30 min pre-treatment, 6 h (Fig. 3B, Fig. 4), JNK inhibitor VIII only at 30 μM, PKC inhibitors above 1 μM; for Effect on dexamethasone-induced 2×GRE reporter activation: 10 μM inhibitor 30 min pre-treatment, 6 h (Fig. 3A)
Description: as §1
Data (n = 7), expressed as a percentage of Dex activation, are plotted as means ± S.E. BEAS-2B 2×GRE cells were pre-treated for 30 min with the indicated concentrations of B. PS or JNK or C. JNK in the presence or absence of 10 μM PS, before addition of 10 ng/ml TNF. After 1 h, 10 μM Dex was added and cells harvested 6 h later for luciferase assay. […] D+T indicates Dex plus TNF treatment.
Data (n = 3–4), expressed as fold activation, are plotted as means ± S.E. D+T indicates Dex plus TNF treatment.
as §2

AKT1 phosphorylation = assay: Western blot of AKT1 phosphorylation in BEAS-2B cells; assay type: cell-based; settings: Homo sapiens, 30 min pre-treatment, TNF 10 ng/ml 30 min, western blot (S2 Fig.), read-out: EC50 for block of AKT1 phosphorylation
Source text: Cells were lysed in 1× Laemmli buffer supplemented with phosphatase inhibitors (Sigma-Aldrich) and 1× complete protease inhibitor cocktail (Roche; Indianapolis, IN), size fractionated on 12% acrylamide gels and subsequently electro-transferred onto Hybond enhanced chemiluminescent membranes (GE Healthcare; Waukesha, WI). Membranes were blocked in 5% milk in tris-buffered saline containing 1% tween 20 and probed with antibodies against phospho-jun proto-oncogene (pJUN; pc-Jun) (9164; Cell Signaling Technology; Danvers, MA), nuclear factor of kappa light polypeptide gene enhancer in B-cells inhibitor, alpha (NFKBIA; IκBα) (sc-371; Santa Cruz Biotechnology; Dallas, TX), phospho-NFKBIA (9246; Cell Signaling Technology), phospho-AKT1 (9271S; Cell Signaling Technology), AKT (9272S; Cell Signaling Technology) and GAPDH (4699–9555(ST); AbD Serotec; Raleigh, NC). After washing, membranes were incubated with horseradish peroxidase-conjugated anti-rabbit (111–035–003; Jackson ImmunoResearch Laboratories Inc; West Grove, PA) or anti-mouse immunoglobulin (115–035–003; Jackson ImmunoResearch Laboratories Inc). Detection was by enhanced chemiluminescence (Pierce ECL Western Blotting Substrate; Thermo Fisher Scientific Inc.; Rockford, IL) and visualization by autoradiography.
Cells were harvested after 30 min for western blotting and probed for phospho v-akt murine thymoma viral oncogene homolog 1 (pAKT1), AKT1 and glyceraldehyde 3-phosphate dehydrogenase (GAPDH). (PDF) Click here for additional data file.

[3] = tested on: TSC22D3 mRNA in primary HBE cells; assay: RT-PCR of dexamethasone-inducible gene expression in primary human bronchial epithelial (HBE) cells; assay type: cell-based; settings: TNF 10 ng/ml (at 1 h) or IL1B 1 ng/ml (at 18 h), 1 μM dexamethasone
[4] = tested on: TSC22D3 mRNA in primary ASM cells; assay: RT-PCR of dexamethasone-inducible gene expression in primary human airway smooth muscle (ASM) cells; assay type: cell-based; settings: TNF 10 ng/ml or IL1B 1 ng/ml, 1 μM dexamethasone, 6 h
[5] = 100 nM ligand, 10 nM formoterol, 6 h (Fig. 8)
[6] = BEAS-2B 2×GRE reporter, TNF 10 ng/ml pre-treatment 1 h, 6 h, percent of 1 μM dexamethasone
[7] = BEAS-2B 2×GRE reporter, no TNF, 6 h, percent of 1 μM dexamethasone
[8] = BEAS-2B 2×GRE reporter, TNF 10 ng/ml pre-treatment 1 h, 6 h
[9] = BEAS-2B 2×GRE reporter, no TNF, 6 h

CCCC1O[C@@H]2C[C@H]3[C@@H]4CCC5=CC(=O)C=C[C@]5(C)[C@H]4[C@@H](O)C[C@]3(C)[C@]2(C(=O)CO)O1 (stereo partly drawn) [Budesonide]
E max (% Dex), Naive [1]: 109.9 ± 2.6 % Dex

C[C@]12C=CC(=O)C=C1CC[C@@H]1[C@@H]2[C@@H](O)C[C@@]2(C)[C@H]1C[C@H]1O[C@@H](C3CCCCC3)O[C@]12C(=O)CO [Des-ciclesonide]
RGS2 mRNA expression in the presence of formoterol relative to dexamethasone [2, 5]: significantly lower
TSC22D3 mRNA fold induction ([2]; 6 h, 1 μM dexamethasone, 100 nM other ligands (Fig. 8, n = 5)): 71 fold
Agonist type on 2×GRE reporter relative to dexamethasone ([1]; BEAS-2B 2×GRE reporter): partial agonists
E max (% Dex), +TNF [1, 6]: 43.1 ± 1.0 % Dex
E max (% Dex), Naive [1, 7]: 76.0 ± 2.0 % Dex
EC50 ([1]; +TNF, BEAS-2B 2×GRE reporter, TNF 10 ng/ml pre-treatment 1 h, 6 h): 3.16e-09 M
EC50 ([1]; Naive, BEAS-2B 2×GRE reporter, no TNF, 6 h): 2.51e-09 M

C[C@@H]1C[C@H]2[C@@H]3CCC4=CC(=O)C=C[C@]4(C)[C@@]3(F)[C@@H](O)C[C@]2(C)[C@@]1(O)C(=O)CO [Dexamethasone]
E max (% Dex), +TNF [1, 6]: 58.7 ± 3.2 % Dex
E max (% Dex), Naive [1, 7]: 100 ± 3.2 % Dex

CCC(=O)O[C@]1(C(=O)SCF)[C@H](C)C[C@H]2[C@@H]3C[C@H](F)C4=CC(=O)C=C[C@]4(C)[C@@]3(F)[C@@H](O)C[C@@]21C [Fluticasone Propionate]
E max (% Dex), +TNF [1, 6]: 51.0 ± 2.8 % Dex
E max (% Dex), Naive [1, 7]: 111.2 ± 4.3 % Dex

CN(C)CCCn1cc(C2=C(c3c[nH]c4ccccc34)C(=O)NC2=O)c2ccccc21 [GF109203X]
Effect on dexamethasone-induced 2×GRE reporter activation (concentration-response) (2×GRE reporter): enhanced

C[C@@H]1C[C@H]2[C@@H]3C[C@H](F)C4=CC(=O)C=C[C@]4(C)[C@@]3(F)[C@@H](O)C[C@]2(C)[C@@]1(OC(=O)C1C(C)(C)C1(C)C)C(=O)OCC#N [GW870086X]
RGS2 mRNA expression in the presence of formoterol relative to dexamethasone [2, 5]: significantly lower
TSC22D3 mRNA expression in the presence of formoterol, or TNF plus formoterol, relative to dexamethasone [2, 5]: significantly lower
Agonist type on 2×GRE reporter relative to dexamethasone ([1]; BEAS-2B 2×GRE reporter): partial agonists
pEC50 (M), +TNF [1, 8]: 8.0 ± 0.2 * M
E max (% Dex), +TNF [1, 6]: 29.8 ± 1.4 % Dex
pEC50 (M), Naive [1, 9]: 8.3 ± 0.1 M
E max (% Dex), Naive [1, 7]: 50.1 ± 1.1 % Dex

Cn1c2ccccc2c2c3c(c4c5ccccc5n(CCC#N)c4c21)CNC3=O [Gö6976]
Effect on dexamethasone-induced 2×GRE reporter activation (concentration-response) (2×GRE reporter): reduced

O=c1cc(N2CCOCC2)oc2c(-c3ccccc3)cccc12 [LY294002, 2-(4-morpholinyl)-8-phenyl-4H-1-benzopyran-4-one]
Effect on dexamethasone-induced 2×GRE reporter activation (concentration-response) (2×GRE reporter): less effect
EC50 (AKT1 phosphorylation): ~900 nM

COc1cccc(-c2cc(=O)c3ccccc3o2)c1N [PD098059]
Effect on dexamethasone-induced 2×GRE reporter activation (2×GRE reporter): significantly reduced

Oc1cccc(-c2nc(N3CCOCC3)c3oc4ncccc4c3n2)c1 [PI103]
Effect on dexamethasone-induced 2×GRE reporter activation (concentration-response) (2×GRE reporter): concentration-dependently reduced
EC50 (AKT1 phosphorylation): ~70 nM

C[C@@H]1C[C@H]2[C@@H]3CCC4=CC(=O)C=C[C@]4(C)[C@@]3(F)[C@@H](O)C[C@]2(C)[C@H]1C(=O)CC#N [RU24858]
Agonist type on 2×GRE reporter relative to dexamethasone ([1]; BEAS-2B 2×GRE reporter): partial agonists
pEC50 (M), +TNF [1, 8]: 7.3 ± 0.0 * M
E max (% Dex), +TNF [1, 6]: 46.0 ± 0.8 % Dex
pEC50 (M), Naive [1, 9]: 7.4 ± 0.0 M
E max (% Dex), Naive [1, 7]: 74.9 ± 1.1 % Dex

Cn1cc(C2=C(c3cn(CCCSC(=N)N)c4ccccc34)C(=O)NC2=O)c2ccccc21 [Ro 31–8220]
Effect on dexamethasone-induced 2×GRE reporter activation (concentration-response) (2×GRE reporter): reduced

C[S+]([O-])c1ccc(-c2nc(-c3ccncc3)c(-c3ccc(F)cc3)[nH]2)cc1 (stereo not drawn) [SB203580]
Effect on dexamethasone-induced 2×GRE reporter activation (2×GRE reporter): no effect

COC[C@H]1OC(=O)c2coc3c2[C@@]1(C)C1=C(C3=O)[C@@H]2CCC(=O)[C@@]2(C)C[C@H]1OC(C)=O [wortmannin]
Effect on dexamethasone-induced 2×GRE reporter activation (concentration-response) (2×GRE reporter): concentration-dependently reduced
EC50 (AKT1 phosphorylation): ~20 nM

GSK9027
Agonist type on 2×GRE reporter relative to dexamethasone ([1]; BEAS-2B 2×GRE reporter): partial agonists
pEC50 (M), +TNF [1, 8]: 7.0 ± 0.1 M
E max (% Dex), +TNF [1, 6]: 40.7 ± 0.9 % Dex
pEC50 (M), Naive [1, 9]: 7.1 ± 0.0 M
E max (% Dex), Naive [1, 7]: 77.2 ± 1.0 % Dex

IL1B: pro-inflammatory cytokine interleukin-1β (R&D systems), used at 1 ng/ml
Maximal repression of dexamethasone-induced TSC22D3 expression [3]: 62%
Repression of dexamethasone-induced TSC22D3 expression [4]: 43%
